# Patent US20140038920A1, “TFEB PHOSPHORYLATION INHIBITORS AND USES THEREOF” (FONDAZIONE TELETHON, priority 2011, published 2014)
# Like-named read-outs stand apart in the source and are kept apart here.
# Tests used:
# TFEB = experiment: High content TFEB-GFP nuclear translocation assay; assay type: cell-based; details: Homo sapiens, TFEB-GFP HeLa cells
# Experimental: Immunoblotting of protein extracts isolated from HeLa cells treated overnight, as indicated. Membranes were probed with antibodies for p-T202/Y204-ERK1/2, ERK1/2, p-T389-S6K, and S6K to measure ERK and mTORC1 activities. […] FLAG immunoblotting of cytosolic and nuclear fractions isolated from TFEB-3×FLAG HeLa cells cultured in amino acid-free media and subsequently stimulated as indicated for at least 3 h. Correct subcellular fractionation was verified with H3 and tubulin antibodies. […] After 3 h at 37° C. in RPMI medium containing one of each of the compounds, the cells were washed, fixed, and stained with DAPI and photographed by using confocal automated microscopy (Opera high content system, Perkin Elmer). […] Scale bars represent 30 μm. […] The EC50 for each compound was calculated using Prism software (see Materials and Methods for details). […] Antibody used were p-T389-S6K, S6K and FLAG. […] HeLa cells stably expressing Flag-3×TFEB were infected with lentiviruses encoding a Short hairpin (Sh-) RNA targeting luciferase (control) or RagC and RagD mRNAs. […] TFEB localization was detected with a FLAG antibody, whereas tubulin and H3 were used as controls for the cytosolic and nuclear fraction, respectively; levels of S6K phosphorylation were used to test RagC and RagD knockdown efficiency.
# After 3 hours at 37° C. in RPMI medium cells were washed, fixed, and stained with DAPI. For the acquisition of the images, ten pictures per each well of the 384-well plate were taken by using confocal automated microscopy (Opera high content system, Perkin Elmer). A dedicated script was developed to perform the analysis of TFEB localization on the different images (Acapella software, Perkin Elmer). The script calculates the ratio value resulting from the average intensity of nuclear TFEB-GFP fluorescence divided by the average of the cytosolic intensity of TFEB-GFP fluorescence. The results were normalized using negative (RPMI medium) and positive (HBSS starvation) control samples in the same plate. The data are represented by the percentage of nuclear translocation at the different concentrations of each compound using Prism software (GraphPad software). The EC50 for each compound was calculated using non-linear regression fitting (Prism software).
# In order to find additional small molecules able to induce the translocation of TFEB from the cytosol to the nucleus, the applicants developed a cell-based high content assay using stable HeLa cells overexpressing TFEB fused to the green fluorescent protein (TFEB-GFP). In the assay imaging of treated cells is acquired by an automated confocal microscope (OPERA system) and the analysis of those images with Acapella image software calculates the ratio of the average of fluorescence intensity of TFEB-GFP between the cytosol and nucleus of the cell (see Materials and methods for details). […] They tested ten concentrations for each inhibitor.
# [1] = system: glycosaminoglycan (GAG) accumulation in MSD NSCs; experiment: Alcian blue staining of GAGs in differentiated NSCs from MSD mice (FIG. 22); assay type: cell-based, mouse; details: glia-differentiated MSD NSCs, 10 nM, 24 hours, versus DMSO
# Experimental: After 24 hours, the GAG content was determined by alcian blue (AB) staining. Both torins were able to reduce GAG staining in MSD treated cells as compared to DMSO treated cells.
# Neuronal progenitor cells were isolated from cortices of WT and MSD pups (P0) by tissue homogenization using the neural tissue dissociation kit and separation using magnetic sorting of cells expressing the stem cell marker prominin-1 (Miltenyi Biotec Srl). Neuronal progenitor cells were maintained in ESGRO complete medium (Hyclone) in the presence of EGF and FGF2 growth factors (Prepotech). Where indicated, neural stem cells (NSCs) were differentiated by removing growth factors and incubate in ESGRO medium containing 2% of serum for at least 48 h.
# Neuronal progenitor cells were isolated from cortices of WT and MSD pups (P0) by using standard protocols. Neuronal stem cells (NSCs) were fixed in Methacarn (60% Methanol; 10% Acetic Acid; 30% Chloroform) for 15 min at RT. After washing the cells were stained for 3 hours in 1% alcian blue pH 2.5, rinsed in 0.3% acetic acid and water and mounted in 100% for visualization.
# [2] = system: vacuolization in MSD cells; experiment: Electron microscopy of vacuolization in differentiated MSD NSCs (FIG. 23); assay type: cell-based, mouse
# Experimental: Differentiated NSC were fixed on glutaraldehyde and processed for standard electron microscopy.
# Cells were washed with PBS, fixed in 0.05% glutaraldehyde, and dissolved in 0.2 M Hepes buffer (pH 7.4) for 30 min at room temperature. The cells were then post-fixed for 2 h in OsO4. After dehydration in graded series of ethanol, the cells were embedded in Epon 812 (Fluka) and polymerized at 60° C. for 72 h. Thin sections were cut at the Leica EM UC6, counterstained with uranyl acetate and lead citrate.
# [3] = system: Multiple Sulfatase Deficiency (MSD) mice; experiment: Liver GAG accumulation by alcian blue staining in treated MSD mice (FIG. 24); assay type: in vivo; details: oral gavage 0.3 mg/day/mouse in 50% PEG400, 10 days, n=3
# Experimental: FIG. 24 Torin 2 reduces GAG accumulation in the liver of MSD mice. MSD mice were treated with placebo (MSD—750) or torin2 (MSD—727) during 10 days (oral administration; 0.3 mg torin 2/day/mouse in 50% PEG400). After the treatment liver tissues were collected and GAG accumulation was determined by alcian blue staining (black spots).
# (§1) Multiple Sulfatase Deficiency (MSD) mice were treated with placebo (n=3) or torin 2 (n=3) during 10 days (gavage-oral administration; 0.3 mg torin 2/day/mouse in 50% PEG400). […] After the treatment liver tissues were collected and GAG accumulation was determined by alcian blue staining.
# Sections of paraffin-embedded liver tissue were stained with 1% Alcian blue (Sigma-Aldrich) and counterstained with Nuclear-Fast red (Sigma-Aldrich).
# [4] = assay type: in vivo; details: MSD mice, oral gavage 0.3 mg/day/mouse, 10 days
# Experimental: as §1
compound,measurement,setting,value
Nc1ccc(-c2ccc3ncc4ccc(=O)n(-c5cccc(C(F)(F)F)c5)c4c3c2)cn1 [TORIN 2],EC50,"TFEB; 3 h, ten concentrations 2.54 nM to 50 μM (FIG. 19D), read-out: EC50, TFEB nuclear translocation",1670 nM
same,EC50,"TFEB; mobilization of cytosolic TFEB to the nucleus, 3 h at 37° C. in RPMI, ten concentrations 50 μM to 2.54 nM, 4 runs, read-out: Average EC50",< 7000 nM
same,alcian blue-stained GAGs,[1],striking reduction
same,cellular vacuolization,[2],reduces vacuolization
same,GAG staining in liver,[3],significant reduction
same,body weight after treatment,[4],no weight differences
same,survival,[4],all the mice treated survived
